Structures are written as SMILES.

One may read the IC50 as the midpoint of a concentration-inhibition curve.

For one assay, the target named is T1, Nav1.7 (or SCN9A) channel; HEK cells stably transfected with hSCN9A (Homo sapiens, UniProt Q15858).
T1 construct: expressed in transfected cells
T1 sequence (Q15858 whole entry): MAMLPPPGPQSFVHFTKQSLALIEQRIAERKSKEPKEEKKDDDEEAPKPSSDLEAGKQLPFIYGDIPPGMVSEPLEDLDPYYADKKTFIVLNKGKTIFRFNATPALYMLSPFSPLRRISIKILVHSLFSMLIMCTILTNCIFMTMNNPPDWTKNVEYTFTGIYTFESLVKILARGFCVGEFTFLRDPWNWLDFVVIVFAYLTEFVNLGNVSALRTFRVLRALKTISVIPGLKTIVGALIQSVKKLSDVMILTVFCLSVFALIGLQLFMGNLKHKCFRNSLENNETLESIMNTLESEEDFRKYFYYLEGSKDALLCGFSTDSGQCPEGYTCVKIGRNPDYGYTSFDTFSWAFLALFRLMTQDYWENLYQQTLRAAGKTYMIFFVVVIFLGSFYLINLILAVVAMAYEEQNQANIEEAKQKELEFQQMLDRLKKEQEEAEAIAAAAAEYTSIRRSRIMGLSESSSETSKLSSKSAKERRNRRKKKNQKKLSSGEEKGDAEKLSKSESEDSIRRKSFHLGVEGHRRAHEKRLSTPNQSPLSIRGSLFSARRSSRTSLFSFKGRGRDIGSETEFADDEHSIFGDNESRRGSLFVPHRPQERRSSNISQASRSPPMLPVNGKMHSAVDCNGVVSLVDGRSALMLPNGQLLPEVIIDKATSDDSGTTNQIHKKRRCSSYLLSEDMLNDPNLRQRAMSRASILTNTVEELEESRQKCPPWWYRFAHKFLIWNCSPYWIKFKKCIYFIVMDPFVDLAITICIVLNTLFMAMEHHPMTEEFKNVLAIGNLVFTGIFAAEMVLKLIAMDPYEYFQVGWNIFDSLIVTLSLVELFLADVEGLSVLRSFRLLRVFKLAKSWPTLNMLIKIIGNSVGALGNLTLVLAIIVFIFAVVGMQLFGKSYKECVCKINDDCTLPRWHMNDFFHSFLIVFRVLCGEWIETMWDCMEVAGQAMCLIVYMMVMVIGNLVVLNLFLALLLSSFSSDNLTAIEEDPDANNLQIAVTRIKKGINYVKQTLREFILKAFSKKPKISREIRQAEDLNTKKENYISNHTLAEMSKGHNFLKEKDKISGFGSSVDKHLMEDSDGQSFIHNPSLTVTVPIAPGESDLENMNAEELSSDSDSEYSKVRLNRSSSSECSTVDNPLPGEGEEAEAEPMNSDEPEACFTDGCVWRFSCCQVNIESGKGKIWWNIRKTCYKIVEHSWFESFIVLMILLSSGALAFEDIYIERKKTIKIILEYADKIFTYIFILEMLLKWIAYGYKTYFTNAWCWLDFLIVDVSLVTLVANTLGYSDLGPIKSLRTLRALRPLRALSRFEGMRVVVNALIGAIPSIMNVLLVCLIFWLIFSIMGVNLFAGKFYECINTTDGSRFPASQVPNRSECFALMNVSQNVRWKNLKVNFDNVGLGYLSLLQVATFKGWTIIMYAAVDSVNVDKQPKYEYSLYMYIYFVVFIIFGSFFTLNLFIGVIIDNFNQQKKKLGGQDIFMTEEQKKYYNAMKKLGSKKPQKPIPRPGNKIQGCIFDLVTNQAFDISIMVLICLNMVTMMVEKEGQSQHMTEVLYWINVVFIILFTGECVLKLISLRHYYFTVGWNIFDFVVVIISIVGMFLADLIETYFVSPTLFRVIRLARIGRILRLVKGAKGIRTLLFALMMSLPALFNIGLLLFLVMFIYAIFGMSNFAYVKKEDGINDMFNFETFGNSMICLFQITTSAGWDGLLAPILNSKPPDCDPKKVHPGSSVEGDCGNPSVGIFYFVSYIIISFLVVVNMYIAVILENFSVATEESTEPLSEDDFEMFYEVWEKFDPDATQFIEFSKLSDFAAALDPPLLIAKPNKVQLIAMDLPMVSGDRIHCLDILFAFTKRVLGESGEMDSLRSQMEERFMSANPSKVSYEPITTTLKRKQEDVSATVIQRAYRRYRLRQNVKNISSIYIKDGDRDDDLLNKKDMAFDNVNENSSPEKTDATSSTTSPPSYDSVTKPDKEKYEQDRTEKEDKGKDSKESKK
The assay is described as follows: Nav1.7 block, PatchXpress 7000 automated whole-cell voltage clamp, estimated IC50 (EIC50). The class given is cell-based. To be noted: PatchXpress platform; hSCN9A HEK cells held at V1/2 of inactivation; estimated IC50.
On to `Cc1cccc(-c2cccc(OC(F)(F)F)c2)c1Oc1ccc(S(=O)(=O)Nc2ncns2)cc1C#N` [Example 37, 3-cyano-4-{[3-methyl-3′-(trifluoromethoxy)biphenyl-2-yl]oxy}-N-1,2,4-thiadiazol-5-ylbenzenesulfonamide], for which the IC50 was 30900 nM.
With `COc1cc(S(=O)(=O)Nc2ncns2)ccc1Oc1ccccc1-c1ccccc1` [Example 262, 4-(biphenyl-2-yloxy)-3-methoxy-N-1,2,4-thiadiazol-5-ylbenzenesulfonamide], the IC50 is 1320 nM.
Turning to `Cn1nccc1-c1cc(Cl)ccc1Oc1ccc(S(=O)(=O)Nc2nccs2)cc1F` [Example 219, 4-(4-chloro-2-(1-methyl-1H-pyrazol-5-yl)phenoxy)-3-fluoro-N-(thiazol-2-yl)benzenesulfonamide], the IC50 was 20 nM.
Turning to `N#Cc1cc(S(=O)(=O)Nc2ncns2)ccc1Oc1ccc(F)cc1C1CC1` [Example 6, 3-cyano-4-(2-cyclopropyl-4-fluorophenoxy)-N-1,2,4-thiadiazol-5-ylbenzenesulfonamide], the IC50 is more than 1000 nM.
`CC(C)c1nn(-c2ccccc2Cl)cc1Oc1ccc(S(=O)(=O)Nc2ncns2)cc1C#N` [Example 67, 4-{[1-(2-chlorophenyl)-3-isopropyl-1H-pyrazol-4-yl]oxy}-3-cyano-N-1,2,4-thiadiazol-5-ylbenzenesulfonamide]: the concentration for half-maximal inhibition (IC50) is 4220 nM.
With `O=S(=O)(Nc1nccs1)c1ccc(Oc2cccc(Oc3ccccc3)c2)c(F)c1` [Example 126, 3-fluoro-4-(3-phenoxyphenoxy)-N-1,3-thiazol-2-ylbenzenesulfonamide], the IC50 is 11500 nM.
The same measure, in the same setting: the same measure for `Cc1cc(S(=O)(=O)Nc2ncns2)ccc1Oc1ccccc1-c1ccccc1` [Example 256, 4-(biphenyl-2-yloxy)-3-methyl-N-1,2,4-thiadiazol-5-ylbenzenesulfonamide]: 220 nM.
Same read-out and setting: the same measure for `Cc1cnc(NS(=O)(=O)c2ccc(Oc3ccccc3-c3ccccc3)c(C#N)c2)s1` [Example 100, 4-(biphenyl-2-yloxy)-3-cyano-N-(5-methyl-1,3-thiazol-2-yl)benzenesulfonamide]: 3170 nM.

Staying with this assay, now noted: estimated IC50; hSCN9A HEK cells, PatchXpress platform; Examples 283-814.
Turning to `O=S(=O)(Nc1nccs1)c1ccc(Oc2cc(Cl)ccc2-c2ccn[nH]2)c(F)c1` [Example 722, 4-[5-Chloro-2-(1H-pyrazol-5-yl)phenoxy]-3-fluoro-N-1,3-thiazol-2-ylbenzenesulfonamide], the IC50 is 140 nM.
With `N#Cc1cc(S(=O)(=O)Nc2cscn2)ccc1Oc1ccc(Cl)cc1-c1cn[nH]c1N` [Example 393, 4-[2-(5-amino-1H-pyrazol-4-yl)-4-chlorophenoxy]-3-cyano-N-1,3-thiazol-4-ylbenzenesulfonamide], the concentration for half-maximal inhibition (IC50) was 990 nM.
Same read-out and setting: the same measure for `O=S(=O)(Nc1nncs1)c1cc(Cl)c(Oc2ccc(C(F)(F)F)cc2-c2cn[nH]c2)cc1F` [Example 764, 5-chloro-2-fluoro-4-[2-(1H-pyrazol-4-yl)-4-(trifluoromethyl)phenoxy]-N-1,3,4-thiadiazol-2-ylbenzenesulfonamide]: 30 nM; for `CCc1cc(S(=O)(=O)Nc2cscn2)c(F)cc1Oc1ccc(F)cc1-c1ccnn1C` [Example 627, 5-ethyl-2-fluoro-4-[4-fluoro-2-(1-methyl-1H-pyrazol-5-yl)phenoxy]-N-1,3-thiazol-4-ylbenzenesulfonamide]: 160 nM; for `N#Cc1cc(S(=O)(=O)Nc2nccs2)ccc1Oc1ccc(-c2ccccc2)nc1` [Example 646, 3-cyano-4-[(6-phenylpyridin-3-yl)oxy]-N-1,3-thiazol-2-ylbenzenesulfonamide]: 2800 nM.
For `Cn1nc(C(F)(F)F)cc1-c1ccc(Oc2ccc(S(=O)(=O)Nc3ncc(F)s3)cc2C#N)cc1` [Example 387, 3-cyano-N-(5-fluoro-1,3-thiazol-2-yl)-4-{4-[1-methyl-3-(trifluoromethyl)-1H-pyrazol-5-yl]phenoxy}benzenesulfonamide], the IC50 was 140 nM.
Still for that read-out and setting: the same measure for `Nc1ccc(-c2cc(Cl)ccc2Oc2cc(F)c(S(=O)(=O)Nc3ncns3)cc2F)nc1` [Example 411, 4-[2-(5-aminopyridin-2-yl)-4-chlorophenoxy]-2,5-difluoro-N-1,2,4-thiadiazol-5-ylbenzenesulfonamide]: 540 nM.
On to `CN1CCC(n2nccc2-c2cc(Cl)ccc2Oc2ccc(S(=O)(=O)Nc3ncns3)cc2C#N)CC1` [Example 725, 4-{4-chloro-2-[1-(1-methylpiperidin-4-yl)-1H-pyrazol-5-yl]phenoxy}-3-cyano-N-1,2,4-thiadiazol-5-ylbenzenesulfonamide], for which the IC50 was 20 nM.
Regarding `Cc1cc(-c2ccccc2Oc2ccc(S(=O)(=O)Nc3ccc(F)cn3)cc2C#N)sn1` [Example 571, 3-cyano-N-(5-fluoropyridin-2-yl)-4-[2-(3-methylisothiazol-5-yl)phenoxy]benzenesulfonamide], the IC50 was 10000 nM.
As to `Nc1n[nH]cc1-c1cc(Cl)ccc1Oc1cc(F)c(S(=O)(=O)Nc2nncs2)cc1Cl` [Example 803, 4-[2-(5-amino-1H-pyrazol-4-yl)-4-chlorophenoxy]-5-chloro-2-fluoro-N-1,3,4-thiadiazol-2-ylbenzenesulfonamide], the IC50 was 4.8 nM.
For the compound `N#Cc1cc(S(=O)(=O)Nc2nccs2)ccc1Oc1cccc(-c2cccc(N)n2)c1` [Example 639, 4-[3-(6-aminopyridin-2-yl)phenoxy]-3-cyano-N-1,3-thiazol-2-ylbenzenesulfonamide], the IC50 was 6900 nM.
For the compound `N#Cc1cc(S(=O)(=O)Nc2ncns2)ccc1Oc1ccc(C(F)(F)F)cc1-c1cnccn1` [Example 671, 3-cyano-4-[2-pyrazin-2-yl-4-(trifluoromethyl)phenoxy]-N-1,2,4-thiadiazol-5-ylbenzenesulfonamide], the IC50 was 260 nM.
For `Cn1nc(C(F)(F)F)cc1-c1ccc(F)c(Oc2ccc(S(=O)(=O)Nc3nccs3)cc2C#N)c1` [Example 779, 3-cyano-4-{2-fluoro-5-[1-methyl-3-(trifluoromethyl)-1H-pyrazol-5-yl]phenoxy}-N-1,3-thiazol-2-ylbenzenesulfonamide], the IC50 was 210 nM.
Still for that read-out and setting: with `CCn1nc(C(F)(F)F)cc1-c1ccc(Oc2ccc(S(=O)(=O)Nc3ccc(F)cn3)cc2C#N)cc1` [Example 367, 3-cyano-4-{4-[1-ethyl-3-(trifluoromethyl)-1H-pyrazol-5-yl]phenoxy}-N-(5-fluoropyridin-2-yl)benzenesulfonamide] the figure was 2400 nM; with `CCn1nc(-c2ccc(Oc3ccc(S(=O)(=O)Nc4nccs4)cc3C#N)cc2)cc1C1CC1` [Example 372, 3-cyano-4-[4-(5-cyclopropyl-1-ethyl-1H-pyrazol-3-yl)phenoxy]-N-1,3-thiazol-2-ylbenzenesulfonamide], 2600 nM.
For `Cn1cnc(-c2cc(Cl)ccc2Oc2ccc(S(=O)(=O)Nc3nccs3)cc2C#N)n1` [Example 325, 4-[4-chloro-2-(1-methyl-1H-1,2,4-triazol-3-yl)phenoxy]-3-cyano-N-1,3-thiazol-2-ylbenzenesulfonamide], the IC50 is more than 300 nM.
Still for that read-out and setting: with `CCc1cc(-n2ccc(C(F)(F)F)n2)ccc1Oc1ccc(S(=O)(=O)Nc2nccs2)cc1C#N` [Example 490, 3-cyano-4-{2-ethyl-4-[3-(trifluoromethyl)-1H-pyrazol-1-yl]phenoxy}-N-1,3-thiazol-2-ylbenzenesulfonamide] the figure was 660 nM; with `CC(C)c1cc(-n2ccc(C(F)(F)F)n2)ccc1Oc1ccc(S(=O)(=O)Nc2nccs2)cc1C#N` [Example 352, 3-cyano-4-{2-isopropyl-4-[3-(trifluoromethyl)-1H-pyrazol-1-yl]phenoxy}-N-1,3-thiazol-2-ylbenzenesulfonamide], 190 nM; with `CCn1nc(C(F)(F)F)cc1-c1cccc(Oc2ccc(S(=O)(=O)Nc3ccc(F)cn3)cc2C#N)c1` [Example 368, 3-cyano-4-{3-[1-ethyl-3-(trifluoromethyl)-1H-pyrazol-5-yl]phenoxy}-N-(5-fluoropyridin-2-yl)benzenesulfonamide], more than 1000 nM.
Turning to `O=S(=O)(Nc1ccc(F)cn1)c1cc(F)c(Oc2ccc(Cl)cc2C2CCNCC2)cc1F` [Example 561, 4-(4-chloro-2-piperidin-4-ylphenoxy)-2,5-difluoro-N-(5-fluoropyridin-2-yl)benzenesulfonamide], the IC50 was 380 nM.

The assay is the same for the next values; noted with them: estimated IC50; hSCN9A HEK cells, PatchXpress platform; Examples 815-1040.
Turning to `Cc1cnc(NS(=O)(=O)c2ccc(Oc3ccc(Cl)cc3-c3ccnn3C)c(C#N)c2)cn1` [Example 892, 4-[4-chloro-2-(1-methyl-1H-pyrazol-5-yl)phenoxy]-3-cyano-N-(5-methylpyrazin-2-yl)benzenesulfonamide], the IC50 was more than 10000 nM.
For the compound `O=S(=O)(Nc1nncs1)c1cc(Cl)c(Oc2ccc(Cl)c(F)c2-c2ccnnc2)cc1F` [Example 956, 5-chloro-4-(4-chloro-3-fluoro-2-pyridazin-4-ylphenoxy)-2-fluoro-N-1,3,4-thiadiazol-2-ylbenzenesulfonamide], the IC50 was 130 nM.
`Cc1[nH]ncc1-c1cc(Cl)c(F)cc1Oc1ccc(S(=O)(=O)Nc2ncns2)cc1C#N` [Example 863, 4-[4-chloro-5-fluoro-2-(5-methyl-1H-pyrazol-4-yl)phenoxy]-3-cyano-N-1,2,4-thiadiazol-5-ylbenzenesulfonamide]: the IC50 was 3.1 nM.
On to `N#Cc1cc(S(=O)(=O)Nc2ncns2)ccc1Oc1ccc(F)cc1-c1cc(N)n[nH]1` [Example 826, 4-[2-(3-amino-1H-pyrazol-5-yl)-4-fluorophenoxy]-3-cyano-N-1,2,4-thiadiazol-5-ylbenzenesulfonamide], for which the IC50 is 300 nM.
Same read-out and setting: with `O=S(=O)(Nc1ccc(F)cn1)c1cc(F)c(Oc2ccc(Cl)cc2-c2ccnnc2)cc1F` [Example 846, 4-(4-chloro-2-pyridazin-4-ylphenoxy)-2,5-difluoro-N-(5-fluoropyridin-2-yl)benzenesulfonamide] the figure was 230 nM; with `CC(=O)N1CC(n2nccc2-c2cc(F)ccc2Oc2cc(F)c(S(=O)(=O)Nc3cscn3)cc2Cl)C1` [Example 989, 4-{2-[1-(1-acetylazetidin-3-yl)-1H-pyrazol-5-yl]-4-fluorophenoxy}-5-chloro-2-fluoro-N-1,3-thiazol-4-ylbenzenesulfonamide], 950 nM.

The values are drawn from patent US8541588B2, “Sulfonamide derivatives” (Pfizer Limited, priority 2009, dated 2013).
